Experiments:
Tsg101 = target: T1, Tsg101 (Homo sapiens, UniProt Q99816); assay: NWU screening / in vitro binding assay; conditions: Esomeprazole and tenatoprazole compared
T1 sequence (Q99816 2-145 limits assumed): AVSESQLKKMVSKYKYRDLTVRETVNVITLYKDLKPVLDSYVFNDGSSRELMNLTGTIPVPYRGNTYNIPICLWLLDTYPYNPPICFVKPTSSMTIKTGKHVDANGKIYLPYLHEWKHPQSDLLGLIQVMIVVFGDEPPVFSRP
Source text: Pantoprazole, Lansoprazole/Dexlansoprazole (dexlansoprazole is the active enantiomer of the racemic lansoprazole), and Rabeprazole were in the NWU screen but were not considered hits.

Hela cells = assay: Metabolic activity, WST-1 assay, Hela cells; type: cell-based; conditions: Homo sapiens, 24 hr in N16, WST-1, read-out: IC50 (95% confidence levels), metabolic activity
Method: (§1) FIG. 20A-C. N16 inhibition is virus-specific. A) N16 IC50 for Hela and 293T cells. […] Values were calculated by measuring metabolic activity (WST-1 Assay, Roche Applied Science) after cells were grown for 24 hr in N16. Data points represent the mean of 2 assays, 3 time points each for each cell line. […] Values in the absence or presence of N16 (50 uM) were 12% and 13%, respectively). C) N16 effect on EGF-stimulated EFGR degradation. Cells maintained for 24 hr in media containing DMSO alone or DMSO and N16 were stimulated with EGF ligand for a 90 min period and then assessed for EGFR steady-state level by Western analysis. EGFR levels for unstimulated and stimulated sample pairs are shown. A) n=2; B) n=2; C) n=2.
(§2) Cells were grown in 96-well trays for 24 hr with increasing levels of drug, metabolic activity was measured using WST-1colorimetric assay (Roche), and IC50 values were calculated (Prism 6, Graph Pad Software Inc.).

293T cells = assay: Metabolic activity, WST-1 assay, 293T cells; type: cell-based; conditions: Homo sapiens, HEK-293T; 293T, 24 hr in N16, WST-1; read-out: IC50 (95% confidence levels), metabolic activity
Method: as §1
FIG. 27A-C. Effect of N-Acetyl Cysteine (NAC) on N16-mediated inhibition of VLP production and intracellular Gag accumulation. […] A concentration of 3 mM NAC was therefore used to test the effect of the antioxidative reagent on the N16 inhibitory effect. N16 (0, 12, 25, 50, 75, and 100 uM) was added 8.5 hr prior to transfection with pNL4-3ΔEnv. Cells were harvested 16 hr later. […] C) Quantitative analysis. n=2.
as §2

[1] = tested on: Tsg101 midbody localization; assay: Tsg101 midbody localization in dividing cells; type: cell-based; conditions: N16 50 uM; 200 cells sampled; 12% in absence
Method: as §1
(§3) We investigated the specificity of the inhibitory effect. F15 and N16 impaired Tsg101-co-localization with Gag on the plasma membrane (c.f, FIG. 19) and reduced release of the VLPs assembled by Gag (c.f, FIG. 15). […] Cell metabolic activity was not affected after exposure to N16 for 24 hr; it decreased by less than 10% after exposure to N16 for 48 hr (not shown). Tsg101 localization to the midbody of dividing cells requires its recruitment to that location by centrosomal protein of 55k (CEP55) which binds a site in the Tsg101 Pro-rich domain (aa 154-166) (Lee, H. H., et al. (2008)). […]

EGFR = assay: EGF-stimulated EGFR degradation, Western analysis; type: cell-based; conditions: concentrations well above 50 JAM
Method: as §1, §3

Plasma level in humans = type: in vivo, human; conditions: equivalent of the plasma level
Source text: Targeting of the Gag-Tsg101 interaction for inhibition of HIV budding has been an active field over the last fifteen years, mostly focusing on interference with PTAP binding (Tavassoli, A. et al. (2008); Chen, H., et al. (2010); Kim, S. E. et al. (2011); Lu, J. et al. (2014)). Theoretically, a synthetic peptide that mimics the PTAP motif could compete for the PTAP binding pocket of Tsg101 in cells. […]; Liu, F. et al. (2008)). Although high-resolution structures for the highest affinity complexes have not yet been elucidated, docking studies indicate that these PTAP inhibitors bind to the hydrophobic surface of Tsg101 around residue T56 (Kim, S. E. et al. (2011)). […]. […] Indeed, the dose of N16 provided is 40 milligrams. Seven microgram/ml is achieved in human plasma (Hunt, R. H. et al. (2005)), a level that is equivalent to a 20 micromolar concentration of the drug. The lowest concentration that we achieved in tissue culture assays when N16 was provided under the optimal conditions described in the text (c.f FIG. 15) was 25-50 micromolar. The current availability of the F15/N16 compounds in diverse long-acting slow-release formulations is another feature adaptable to further refined development of the F15/N16 compounds that could address issues pertaining to drug regimen adherence. […]

SMILES	binding in the in vitro binding assay (Tsg101)	IC50 (Hela cells) [µM]	IC50 (293T cells) [µM]	frequency of cells exhibiting Tsg101 midbody localization [1] [%]	EGFR down-regulation function (EGFR)	plasma level, equivalent concentration (Plasma level in humans) [µM]
COc1ccc2nc([S@@+]([O-])Cc3ncc(C)c(OC)c3C)[nH]c2c1 [F15, esomeprazole]	comparable binding	–	–	–	–	–
COc1ccc2[nH]c([S+]([O-])Cc3ncc(C)c(OC)c3C)nc2n1 (stereo not drawn) [N16, tenatoprazole]	–	156 to 205	99.8 to 139	13	unimpaired	20

Reference: patent US12059413B2, “Methods of inhibiting viruses using compositions targeting TSG101-ubiquitin interaction” (The Research Foundation for the State University of New York, priority 2016, dated 2024)
